The results in this text go back to patent US7795457B2, “Carbamate compounds” (Kosan Biosciences Incorporated, priority 2007, dated 2010).

Where two headings read alike, the source gives them in different places.

The subject of experiment [1] is CRM1 substrate RanBP1. The experiment in a line: Nuclear export block (RanBP1 localization, recovery after compound removal). The format is cell-based. The conditions noted are these: recovery of cytoplasmic RanBP1 localization after compound washout (typically 1 h exposure; 8, 24 or 48 h recovery). On the procedure:
The nuclear export blocking capability of compounds of this invention was evaluated as follows:
1-5×10^4 cells were seeded onto 12 mm glass coverslips or wells of a chamber slide (for example, Lab-Tek #177445). Cells were grown overnight at 37° C. to allow cells to attach to the surface. Media was removed and replaced with media containing the desired test compound and incubated the required time period (typically 1 h). For recovery experiments, cells were washed with PBS or media and incubated in media without test compound for the desired recovery periods (typically 8, 24, or 48 h). The media was removed and coverslips/wells were washed with PBS pH 7.4 for 1 minute. Coverslips or slides were fixed with 3.7% formaldehyde in PBS for 20 minutes at room temperature, washed three times in PBS, and stained for the CRM1 substrate RanBP1.
Coverslips or chamber slides were permeabilized and blocked in 10% donkey serum, 0.1% Triton X-100 in PBS for 30 minutes at room temperature. Primary antibodies were diluted in PBS and incubated for 1 hour at room temperature: goat-anti-RanBP1 (Santa Cruz Biotechnology, sc-1160; 1:50 dilution) and mouse-anti-tubulin (Sigma, T9026; 1:400). Cells were washed 3×5 minutes in PBS. Secondary antibodies donkey-anti-goat Cy3 (705-165-147, Jackson Immunoresearch) and donkey anti-mouse FITC (715-095-150, Jackson Immunoresearch) were diluted 1:200 in PBS and incubated for 1 hour at room temperature. Secondary antibody was removed and cells were stained with a nuclear dye such as DAPI (Sigma, D8417; 2.5 ug/mL in PBS) or Hoechst 33342 (Molecular Probes, H3570; 100 ng/mL in PBS) for 5 minutes at room temperature. Cells were washed 3×5 minutes in PBS and coverslips were mounted with FluorSave (EMD Biosciences, 80058-108). Nuclear (N) or cytoplasmic (C) localization of RanBP1 was examined using a 40× objective on a Zeiss Axiovert 200 inverted epiflourescence microscope. Nuclear localization (N>C) was confirmed after the initial drugging period.

The subject of experiment [2] is HCT-116. The experiment in a line: Inhibition of tumor cell proliferation, HCT-116. The conditions noted are these: read-out: Cancer Cell Line (IC50, nM) HCT-116. The format is cell-based, human. How it is done: (§1) The biological activity of compounds of this invention was evaluated by measuring their inhibitory effect on the proliferation of various tumor cell lines. HCT-116 is a human colon cancer cell line. LNCap is a human prostate cancer cell line. SiHa is an HPV-16 positive human cervical cancer line.

Experiment [3] has as its system LNCap. As to the kind of experiment: Inhibition of tumor cell proliferation, LNCap. The class given is cell-based, human. The following applies: read-out: Cancer Cell Line (IC50, nM) LNCap. How it is done: as §1
Experiment [4] deals with SiHa. The experiment in a line: Inhibition of tumor cell proliferation, SiHa. The format is cell-based, human. The following applies: read-out: Cancer Cell Line (IC50, nM) SiHa. On the procedure: as §1

One may read the IC50 as the concentration that inhibits the measured activity by half. `CNC(=O)OC/C=C(\C)C[C@H](C)[C@@H](O)[C@H](C)C(=O)[C@H](C)/C=C(C)/C=C/C[C@@H](C)/C=C(C)\C=C\[C@H]1CC=CC(=O)O1` [Compound A-2]: in experiment [1], the “Nuclear Export Block” value is “Slow recovery”. The half-maximal inhibitory concentration (IC50) came out at 3.7 nM in experiment [2] (Homo sapiens, HCT-116, 1 h); 0.7 nM in experiment [2] (Homo sapiens, HCT-116, 72 h); 2.7 nM in experiment [3] (Homo sapiens, LNCaP, 1 h); 0.4 nM in experiment [3] (Homo sapiens, LNCaP, 72 h); 1.2 nM in experiment [4] (Homo sapiens, SiHa, 1 h); 0.4 nM in experiment [4] (Homo sapiens, SiHa, 72 h).
With `CC(C=CC1CC=CC(=O)O1)=CC(C)CC=CC(C)=CC(C)C(=O)C(C)C(O)C(C)CC(C)=CCOC(=O)NCCN1CCCC1` (stereo not drawn) [Compound A-5], the half-maximal inhibitory concentration (IC50) in experiment [2] (exposure time to compound 1 h) stood at 2.2 nM; in experiment [2] (exposure time to compound 72 h) it was 1.6 nM; in experiment [3] (exposure time to compound 1 h), 1.7 nM; in experiment [3] (exposure time to compound 72 h) it was 0.5 nM; in experiment [4] (exposure time to compound 1 h), 2.1 nM.
As to `CC(C=CC1CC=CC(=O)O1)=CC(C)CC=CC(C)=CC(C)C(=O)C(C)C(O)C(C)CC(C)=CCOC(=O)NCCc1cccnc1` (stereo not drawn) [Compound A-6], in experiment [1], the “Nuclear Export Block” value is “Slow recovery”. Moreover, the 50% inhibitory concentration (IC50) in experiment [2] (exposure time to compound 1 h) is 2.6 nM; in experiment [2] (exposure time to compound 72 h), 0.8 nM; in experiment [3] (exposure time to compound 1 h), 2.8 nM; in experiment [3] (exposure time to compound 72 h), 0.4 nM; in experiment [4] (exposure time to compound 1 h), 2.1 nM.
As to `CC(C=CC1CC=CC(=O)O1)=CC(C)CC=CC(C)=CC(C)C(=O)C(C)C(O)C(C)CC(C)=CCOC(=O)NCCN1CCOCC1` (stereo not drawn) [Compound A-7], the IC50 in experiment [2] (exposure time to compound 1 h) is 1.8 nM; in experiment [2] (exposure time to compound 72 h) it was 0.4 nM; in experiment [3] (exposure time to compound 1 h), 1.7 nM; in experiment [3] (exposure time to compound 72 h) it was 0.4 nM; in experiment [4] (exposure time to compound 1 h), 0.5 nM.
As for `CCN(CC)CCNC(=O)OCC=C(C)CC(C)C(O)C(C)C(=O)C(C)C=C(C)C=CCC(C)C=C(C)C=CC1CC=CC(=O)O1` (stereo not drawn) [Compound A-8], the IC50 in experiment [2] (exposure time to compound 1 h) is 2.6 nM; in experiment [2] (exposure time to compound 72 h), 0.8 nM; in experiment [3] (exposure time to compound 1 h) it was 1.3 nM; in experiment [3] (exposure time to compound 72 h), 0.4 nM; in experiment [4] (exposure time to compound 1 h), 0.5 nM.
Consider `CC(C=CC1CC=CC(=O)O1)=CC(C)CC=CC(C)=CC(C)C(=O)C(C)C(O)C(C)CC(C)=CCOC(=O)NCCc1ccc(F)cc1` (stereo not drawn) [Compound A-9], for which the half-maximal inhibitory concentration (IC50) in experiment [2] (exposure time to compound 1 h) came to 13.8 nM; in experiment [4] (exposure time to compound 1 h) it was 8.2 nM.
Take `COCCNC(=O)OCC=C(C)CC(C)C(O)C(C)C(=O)C(C)C=C(C)C=CCC(C)C=C(C)C=CC1CC=CC(=O)O1` (stereo not drawn) [Compound A-10]: the results for the IC50 in experiment [2] (exposure time to compound 1 h) and in experiment [4] (exposure time to compound 1 h) were 3.2 nM and 2.5 nM, respectively.
The like results for `CC(C=CC1CC=CC(=O)O1)=CC(C)CC=CC(C)=CC(C)C(=O)C(C)C(O)C(C)CC(C)=CCOC(=O)NCCc1c(C)noc1C` (stereo not drawn) [Compound A-11] were, in that order, 4.2 nM and 3.1 nM.
As for `CC(C=CC1CC=CC(=O)O1)=CC(C)CC=CC(C)=CC(C)C(=O)C(C)C(O)C(C)CC(C)=CCOC(=O)NCc1ccc(F)cc1` (stereo not drawn) [Compound A-12], the IC50 in experiment [2] (exposure time to compound 1 h) was determined as 13.9 nM; in experiment [4] (exposure time to compound 1 h) it was 5.8 nM.
On the same counts, the results for `CC(C=CC1CC=CC(=O)O1)=CC(C)CC=CC(C)=CC(C)C(=O)C(C)C(O)C(C)CC(C)=CCOC(=O)NCCN1CCCC1=O` (stereo not drawn) [Compound A-13] are 2.9 nM and 3.4 nM.
The like results for `CC(C=CC1CC=CC(=O)O1)=CC(C)CC=CC(C)=CC(C)C(=O)C(C)C(O)C(C)CC(C)=CCOC(=O)NCCn1ccnc1` (stereo not drawn) [Compound A-14] were, in that order, 2.9 nM and 3.8 nM.
Consider `CC(=C/[C@H](C)C/C=C/C(C)=C/[C@@H](C)C(=O)[C@@H](C)[C@H](O)[C@@H](C)C/C(C)=C/COC(=O)NCc1cc(C)on1)/C=C/[C@H]1CC=CC(=O)O1` [Compound A-15], for which the IC50 in experiment [2] (Homo sapiens, HCT-116, 1 h) stood at 2.8 nM; in experiment [4] (Homo sapiens, SiHa, 1 h), 3.6 nM.
Take `CC(=C/[C@H](C)C/C=C/C(C)=C/[C@@H](C)C(=O)[C@@H](C)[C@H](O)[C@@H](C)C/C(C)=C/COC(=O)NCc1ccccn1)/C=C/[C@H]1CC=CC(=O)O1` [Compound A-16]: the 50% inhibitory concentration (IC50) in experiment [2] (Homo sapiens, HCT-116, 1 h) stood at 2.9 nM; in experiment [4] (Homo sapiens, SiHa, 1 h), 3.8 nM.
As for `CC(=C/[C@H](C)C/C=C/C(C)=C/[C@@H](C)C(=O)[C@@H](C)[C@H](O)[C@@H](C)C/C(C)=C/COC(=O)NC[C@@H](O)CO)/C=C/[C@H]1CC=CC(=O)O1` [Compound A-17], the IC50 in experiment [2] (Homo sapiens, HCT-116, 1 h) is 3.6 nM; in experiment [4] (Homo sapiens, SiHa, 1 h), 3.2 nM.
Turning to `CC(C=CC1CC=CC(=O)O1)=CC(C)CC=CC(C)=CC(C)C(=O)C(C)C(OC(N)=O)C(C)CC(C)=CCOC(=O)N(Cc1ccccc1)C(N)=O` (stereo not drawn) [Compound A-18], the IC50 came out at 20.3 nM in experiment [2] (exposure time to compound 1 h) and 22.5 nM in experiment [4] (exposure time to compound 1 h).
Turning to `CC(=C/[C@H](C)C/C=C/C(C)=C/[C@@H](C)C(=O)[C@@H](C)[C@H](O)[C@@H](C)C/C(C)=C/COC(=O)NCc1nccs1)/C=C/[C@H]1CC=CC(=O)O1` [Compound A-19], the IC50 in experiment [2] (Homo sapiens, HCT-116, 1 h) worked out at 4.4 nM; in experiment [4] (Homo sapiens, SiHa, 1 h), 4.5 nM.
In the case of `CC(C=CC1CC=CC(=O)O1)=CC(C)CC=CC(C)=CC(C)C(=O)C(C)C(OC(N)=O)C(C)CC(C)=CCOC(=O)NCc1nccs1` (stereo not drawn) [Compound A-20], the IC50 in experiment [2] (exposure time to compound 1 h) was determined as 9.4 nM; in experiment [2] (exposure time to compound 72 h), 2.6 nM; in experiment [4] (exposure time to compound 1 h), 4.6 nM.
For the compound `CC(=C/[C@H](C)C/C=C/C(C)=C/[C@@H](C)C(=O)[C@@H](C)[C@H](O)[C@@H](C)C/C(C)=C/COC(=O)NCc1ccc(C(F)(F)F)cn1)/C=C/[C@H]1CC=CC(=O)O1` [Compound A-21], the half-inhibitory concentration (IC50) is 20 nM in experiment [2] (Homo sapiens, HCT-116, 1 h); 3.1 nM in experiment [2] (Homo sapiens, HCT-116, 72 h); 11.5 nM in experiment [4] (Homo sapiens, SiHa, 1 h).
Consider `CC(=C/[C@H](C)C/C=C/C(C)=C/[C@@H](C)C(=O)[C@@H](C)[C@H](O)[C@@H](C)C/C(C)=C/COC(=O)NCc1ccc(C(F)(F)F)nc1)/C=C/[C@H]1CC=CC(=O)O1` [Compound A-22], for which, in experiment [2] (Homo sapiens, HCT-116, 1 h), the IC50 came out at 18.1 nM.
On the same count and under the same terms, the result for `CC(=C/[C@H](C)C/C=C/C(C)=C/[C@@H](C)C(=O)[C@@H](C)[C@H](O)[C@@H](C)C/C(C)=C/COC(=O)NCc1cccc(C(F)(F)F)n1)/C=C/[C@H]1CC=CC(=O)O1` [Compound A-23] reads 21.5 nM.
Regarding `CC(=C/[C@H](C)C/C=C/C(C)=C/[C@@H](C)C(=O)[C@@H](C)[C@H](OC(N)=O)[C@@H](C)C/C(C)=C/CO)/C=C/[C@H]1CC=CC(=O)O1` [IV], the 50% inhibitory concentration (IC50) was 8.1 nM in experiment [2] (Homo sapiens, HCT-116, 1 h) and 3.3 nM in experiment [4] (Homo sapiens, SiHa, 1 h).
In the case of `CC(/C=C/C[C@@H](C)/C=C(C)/C=C/[C@@H]1OC(=O)C=C[C@@H]1C)=C\[C@@H](C)C(=O)[C@@H](C)[C@H](O)[C@@H](C)C/C(C)=C/C(=O)O` [Leptomycin A, leptomycin A, reference compound], in experiment [1], the “Nuclear Export Block” value is listed as “Fast recovery”. Moreover, the half-maximal inhibitory concentration (IC50) in experiment [2] (exposure time to compound 1 h) was 19 nM; in experiment [2] (exposure time to compound 72 h), 1.4 nM; in experiment [4] (exposure time to compound 72 h) it was 0.5 nM.
With leptolstatin [reference compound], the “Nuclear Export Block” value in experiment [1] was “Slow recovery”. Besides, the half-maximal inhibitory concentration (IC50) stood at 5.5 nM in experiment [2] (exposure time to compound 1 h), 0.49 nM in experiment [2] (exposure time to compound 72 h), 1.6 nM in experiment [4] (exposure time to compound 1 h) and 0.45 nM in experiment [4] (exposure time to compound 72 h).
